# US6476032B2, “2,3,4,4a-tetrahydro-1H-pyrazino[1,2-a]quinoxalin-5(6H)one derivatives” (Wyeth, priority 1998, dated 2002)
# Counter-ions that a name gives are not always drawn. Like-named read-outs stand apart in the source and are kept apart here.
# Tests used:
# [1] = target: T1, human 5-hydroxy-tryptamine2C (h5HT2C) receptor (Homo sapiens, UniProt P28335); test: 5HT2C Receptor Binding Test Procedure ([125I] DOI)
# T1 construct: expressed in transfected cells; host or cells: CHO (Chinese Hamster Ovary) cells; membranes
# T1 sequence (P28335 33-458): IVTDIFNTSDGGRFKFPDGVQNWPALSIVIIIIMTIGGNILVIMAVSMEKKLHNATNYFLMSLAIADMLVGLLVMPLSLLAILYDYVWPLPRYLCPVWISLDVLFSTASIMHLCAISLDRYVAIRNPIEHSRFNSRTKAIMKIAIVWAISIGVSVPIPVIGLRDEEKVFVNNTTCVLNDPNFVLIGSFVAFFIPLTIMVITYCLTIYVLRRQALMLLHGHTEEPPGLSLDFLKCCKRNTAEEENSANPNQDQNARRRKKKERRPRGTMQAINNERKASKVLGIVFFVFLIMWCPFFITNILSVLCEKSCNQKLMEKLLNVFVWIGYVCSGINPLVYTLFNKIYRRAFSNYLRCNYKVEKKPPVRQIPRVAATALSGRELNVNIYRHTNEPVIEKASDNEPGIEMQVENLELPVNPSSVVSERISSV
# human 5-HT2C receptor = target: T2, human 5-HT2C receptor (Homo sapiens, UniProt P28335); test: Stimulation of [3H] Inositol Monophosphate Production by 5HT2C Agonists; type: cell-based
# T2 construct: expressed in transfected cells; host or cells: CHO cells
# T2 sequence (P28335 33-458): T1 sequence (P28335 33-458)
# Description: One (1) ml of maintenance medium containing 1 μCi/ml myo-[^3H] inositol was added to each well. After 48 hours labeling, the cells were washed once with 0.5 ml DMEM containing 25 mM HEPES and 10 mM LiCl, then preincubated with the medium for 30 min (antagonists were included in this period if tested). At the end of the preincubation, the medium was removed, the cells were then incubated with test compounds (in presence of antagonists if needed) for 30 min. The reaction was terminated by removal of the incubation solution and addition of 0.5 ml ice-cold 5% PCA, followed by 15 to 30 min incubation on ice. 200 μl of 0.5 M Tes/1.5 M K2CO3 was added to each well to neutralize to pH 7, and plates were left on ice for another 15 to 30 min to precipitate all salts. The liquid and solid phases were separated by centrifugation.
# A portion (350 μl) of the upper aqueous phase was applied to Dowex AG-1X8 (formate form, 100-200 mesh) columns. The columns were then washed stepwise with 10 ml of water and 10 ml of 25 mM ammonium formate to remove free myo-[^3H]inositol and deacylated phosphoinositol, respectively. Finally 10 ml of 0.2 M ammonium formate solution was applied to the columns to elute [^3H] inositol monophosphate ([^3H] IP1) directly into scintillation vials. Of this eluate, 1 ml was used to determine radioactivity by scintillation counting.
# A 3-parameter logistic function is used to generate estimate of EC50/IC50.
# [2] = tested on: food intake in male Sprague-Dawley rats; test: Effects of Compounds on Feeding Behavior in Rats (food intake, 24 hr fast); type: in vivo; conditions: Rattus norvegicus, dose giving 50% reduction in food intake
# Description: Effects of Compounds on Feeding Behavior in Rats
# Eight (8) male Sprague-Dawley rats weighing 150-180 g were separated into individual cages and acclimated to a powdered diet for 2 weeks. During this period and throughout the test procedure, the food cup and the animals were weighed daily. Following the acclimation period, animals were fasted for 24 hours and then injected with either vehicle or one of 4 doses of the test compound. Food intake was assessed at 2 and 24 hours following compound administration. Compounds to be evaluated were injected 1-2× per week until all animals had received all doses of the test compound. The order of doses were chosen using to a modified Latin Square design. Additional studies may be conducted in satiated rats at the start of the dark cycle. Compounds were injected i.p, s.c. or p.o. At the end of the study effects of the test compound on food intake was evaluated using a repeated measures ANOVA. Data were collected were 2 hour food intake (g). Data were subjected to one-way ANOVA with posthoc t-tests to assess group differences. Where appropriate, ED50 values were calculated.
# [3] = read-out: 5HT2C Affinity DOI/Agonist binding (Ki), [125I] DOI agonist binding
# [4] = CHO cells expressing human 5-HT2C, read-out: Stimulation of IP3 (EC50)
# [5] = read-out: 5HT2C % Emax (5HT, 100%)
SMILES,"Ki [1, 3] [nM]",EC50 (human 5-HT2C receptor; [4]) [nM],Emax (human 5-HT2C receptor; [5]) [%],Ki [1] [nM],other results
"COc1cc(CC(C)N)c(OC)cc1I (centres unmarked) [[^125I] DOI, reference compound]",,,,,"Kd ([1]; read-out: dissociation constant, KD of [125I] DOI at the human serotonin 5HT2C receptor, saturation binding with increasing concentrations of [125I] DOI): 0.4 nM"
"Cl.O=C1Nc2c(Cl)cc(Cl)cc2N2CCNCC12 (centres unmarked) [Example 11, 7,9-Dichloro-2,3,4,4A-Tetrahydro-1H-Pyrazino[1,2-a]Quinoxalin-5(6H)-One, Hydrochloride]",19.8,,,,"Emax (human 5-HT2C receptor; read-out: 5HT2C % Emax (5HT, 100%) at single concentration): 73%; ED50 ([2]; ip): 9.99 mg/kg"
"O=C1Nc2cc(F)c(F)cc2N2CCNCC12 (centres unmarked) [Example 13, 8,9-Difluoro-2,3,4,4a-Tetrahydro-1H-Pyrazino[1,2-a]Quinoxalin-5(6H)-One]",91,,,,
"O=C1Nc2cc(C(F)(F)F)c(Cl)cc2N2CCNC[C@@H]12 [Example 8, (S)-9-Chloro-8-Trifluoromethyl-2,3,4,4a-Tetrahydro-1H-Pyrazino[1,2-a]-Quinoxalin-5(6H)-One. Hydrochloride]",516,2610,85,,
"O=C1Nc2cc(Cl)c(Cl)cc2N2CCNC[C@@H]12 [Example 3, (S)-8,9-Dichloro-2,3,4,4a-Tetrahydro-1H-Pyrazino[1,2-a]Quinoxalin-5(6H)-One]",66.4,290,89,,
"O=C1Nc2ccc(Cl)cc2N2CCNC[C@H]12 (as salt: hydrochloride) [Example 12, (R)-9-Chloro-2,3,4,4a-Tetrahydro-1H-Pyrazino[1,2a]Quinoxalin-5(6H)-One]",,,,,melting point: 146 to 149 °C
"O=C1Nc2ccc(Cl)cc2N2CCNC[C@H]12 [Example 12, (R)-9-Chloro-2,3,4,4a-Tetrahydro-1H-Pyrazino[1,2a]Quinoxalin-5(6H)-One]",,,95,9,EC50 (human 5-HT2C receptor): 30 nM
"Clc1cc2c(cc1Cl)N1CCNC[C@H]1CN2 (single isomer, unassigned) [Example 6, dihydrochloride]",,,77,8,EC50 (human 5-HT2C receptor): 23.2 nM
"O=C1Nc2cc(Cl)c(Cl)cc2N2CCNCC12 (centres unmarked) [Example 1, 8,9-Dichloro-2,3,4,4a-Tetrahydro-1H-Pyrazino[1,2-a]Quinoxalin-5(6H)-One]",,12,108,4.33,ED50 ([2]; ip): 1.91 mg/kg; ED50 ([2]; po): 9.73 mg/kg
"O=C1Nc2cc(C(F)(F)F)c(Cl)cc2N2CCNC[C@H]12 [Example 9, (R)-9-Chloro-8-Trifluoromethyl-2,3,4,4a-Tetrahydro-1H-Pyrazino[1,2-a]-Quinoxalin-5(6H)-One, Hydrochloride]",25,18.8,100,,
"O=C1Nc2cc(Cl)c(Cl)cc2N2CCNC[C@H]12 [Example 2, (R)-8,9-Dichloro-2,3,4,4a-Tetrahydro-1H-Pyrazino[1,2-a]Quinoxalin-5(6H)-One]",,7.92,112,4.18,ED50 ([2]; ip): 1.99 mg/kg
"O=C1Nc2cc(C(F)(F)F)c(Cl)cc2N2CCNCC12 (centres unmarked) [Example 7, 9-Chloro-8-Trifluoromethyl-2,3 4,4a-Tetrahydro-1H-Pyrazino[1,2-a]-Quinoxalin-5(6H)-One, Hydrochloride]",,97.3,100,8,
"Clc1cc2c(cc1Cl)N1CCNC[C@@H]1CN2 (single isomer, unassigned) [Example 5, dihydrochloride]",,,100,7,EC50 (human 5-HT2C receptor): 33.8 nM
"O=C1Nc2ccc(Cl)c(Cl)c2N2CCNCC12 (centres unmarked) [Example 10, 9,10-Dichloro-2,3.4,4a-Tetrahydro-1H-Pyrazino[1,2-a]-Quinoxalin-5(6H)-One, Hydrochloride]",,,,1040,
"Clc1cc2c(cc1Cl)N1CCNCC1CN2 (centres unmarked) [Example 4, 8,9-Dichloro-2,3,4,4a,5,6-Hexahydro-1H-Pyrazino[1,2-a]Quinoxaline, dihydrochloride]",1,,99,,EC50 (human 5-HT2C receptor): 7.32 nM
"CSc1ccc2c(c1)C(N1CCN(C)CC1)Cc1ccccc1S2 (centres unmarked) [Methiothepin, reference compound]",,,,,"Ki ([1]; reference compounds, [125I] DOI binding, CHO cell membranes, read-out: Ki value and 95% confidence interval): 4.6 nM"
